The source of these data is patent US20230339886A1 (University of Florida Research Foundation, Incorporated, priority 2020, published 2023).

T1 sequence (P20393 with tags, fused parts or gaps DEL324-422): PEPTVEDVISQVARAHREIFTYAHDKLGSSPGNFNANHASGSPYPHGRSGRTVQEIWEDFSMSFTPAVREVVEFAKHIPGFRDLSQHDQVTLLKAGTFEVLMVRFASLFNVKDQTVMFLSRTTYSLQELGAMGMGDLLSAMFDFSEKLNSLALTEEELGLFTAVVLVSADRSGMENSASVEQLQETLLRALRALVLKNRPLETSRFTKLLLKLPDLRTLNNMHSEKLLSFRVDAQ
T1 sequence (Q9Y618 2335-2356 partner limits assumed): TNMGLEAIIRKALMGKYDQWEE

The assay has as its target T1, REV-ERBα LBD (human; residues 281-614 Δ324-422) (Homo sapiens, UniProt P20393, DEL324-422).
T1 construct: 6×Histag-REV-ERBα LBD (human; residues 281-614 Δ324-422); made in house; host or cells: Escherichia coli
In words: TR-FRET corepressor interaction assay (REV-ERBα LBD, FITC-SMRT peptide). Format: biochemical. The note with it: FITC-SMRT peptide, read-out: REVERBα agonism (EC50 class, FRET assay). The essentials:
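Compound serial dilutions (in DMSO, triplicate) incubated 2 h at 4 °C; Tb donor excited at 340 nm, emission read at 495 nm and FITC acceptor at 520 nm. TR-FRET ratio (520/495 nm) plotted against ligand concentration and fitted to a sigmoidal dose-response curve.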
(In general: Time-resolved FRET reads energy transfer from a long-lived donor to a nearby acceptor.)
A word on the EC50: it is the concentration needed to bring the measured effect to its halfway point. For `CC(C)(C)Cn1cc([C@H](NS(=O)(=O)C2CCC2)C(F)(F)F)c2cc(F)c(-c3cccc4c3CCCC4)cc21` [Example 479, N-[(1S)-1-[1-(2,2-dimethylpropyl)-5-fluoro-6-tetralin-5-yl-indol-3-yl]-2,2,2-trifluoro-ethyl]cyclobutanesulfonamide], the EC50 was under 500 nM.
Under `CC(C)(C)C(=O)n1cc([C@H](NS(=O)(=O)C2CC2)C(F)(F)F)c2ccc(-c3ccccc3C(F)(F)F)cc21` [Example 480, (S)—N-(2,2,2-trifluoro-1-(1-pivaloyl-6-(2-(trifluoromethyl)phenyl)-1H-indol-3-yl)ethyl)cyclopropanesulfonamide] stands 500 to 3000 nM; under `CC(C)(C)Cn1cc(CCNS(=O)(=O)C2CC2)c2ccc(-c3ccc(C(F)(F)F)cc3C(F)(F)F)cc21` [Example 481, N-(2-(6-(2,4-bis(trifluoromethyl)phenyl)-1-neopentyl-1H-indol-3-yl)ethyl)cyclopropanesulfonamide], 500 to 3000 nM; under `CC(C)(C)Cn1cc(CCNS(=O)(=O)C2CC2)c2ccc(-c3ccc(Cl)cc3C#N)cc21` [Example 482, N-(2-(6-(4-chloro-2-cyanophenyl)-1-neopentyl-1H-indol-3-yl)ethyl)cyclopropanesulfonamide], under 500 nM.
`CC(C)(C)Cn1cc(CCNS(=O)(=O)C2CC2)c2ccc(-c3cc(C(F)(F)F)ccc3C(F)(F)F)cc21` [Example 483, N-(2-(6-(2,5-bis(trifluoromethyl)phenyl)-1-neopentyl-1H-indol-3-yl)ethyl)cyclopropanesulfonamide]: the EC50 is under 500 nM.
Under `CC(C)(C)Cn1cc(CCNS(=O)(=O)C2CC2)c2ccc(-c3cc(C(F)(F)F)ccc3Cl)cc21` [Example 484, N-(2-(6-(2-chloro-5-(trifluoromethyl)phenyl)-1-neopentyl-1H-indol-3-yl)ethyl)cyclopropanesulfonamide] stands under 500 nM; under `CC(C)(C)Cn1cc(CCNS(=O)(=O)C2CC2)c2ccc(-c3cccc(C(F)(F)F)c3Cl)cc21` [Example 485, N-(2-(6-(2-chloro-3-(trifluoromethyl)phenyl)-1-neopentyl-1H-indol-3-yl)ethyl)cyclopropanesulfonamide], 500 to 3000 nM; under `CC(C)(C)Cn1cc(CCNS(=O)(=O)C2CC2)c2ccc(-c3cccc(C#N)c3Cl)cc21` [Example 486, N-(2-(6-(2-chloro-3-cyanophenyl)-1-neopentyl-1H-indol-3-yl)ethyl)cyclopropanesulfonamide], 500 to 3000 nM.
Under `CC(C)(C)Cc1cn(CCNS(=O)(=O)C2CC2)c2ccc(-c3ccc(C(F)(F)F)cc3C#N)cc12` [Example 487, N-(2-(5-(2-cyano-4-(trifluoromethyl)phenyl)-3-neopentyl-1H-indol-1-yl)ethyl)cyclopropanesulfonamide] stands 500 to 3000 nM.
For the compound `CC1(Cn2cc([C@H](NS(=O)(=O)C3CC3)C(F)(F)F)c3cc(F)c(-c4ccccc4C(F)(F)F)cc32)COC1` [Example 489, N-[(1S)-2,2,2-trifluoro-1-[5-fluoro-1-[(3-methyloxetan-3-yl)methyl]-6-[2-(trifluoromethyl)phenyl]indol-3-yl]ethyl]cyclopropanesulfonamide], the EC50 was under 500 nM.
For `CC(C)(CO)Cn1cc([C@H](NS(=O)(=O)C2CC2)C(F)(F)F)c2cc(F)c(-c3ccccc3C(F)(F)F)cc21` [Example 490, N-[(1S)-2,2,2-trifluoro-1-[5-fluoro-1-(3-hydroxy-2,2-dimethyl-propyl)-6-[2-(trifluoromethyl)phenyl]indol-3-yl]ethyl]cyclopropanesulfonamide] the value was 500 to 3000 nM.
Consider `CC(C)(C)Cn1cc([C@H](NS(=O)(=O)C2CC2)C(F)(F)F)c2ccc(-c3ccccc3C(F)(F)F)nc21` [Example 491, N-[(1S)-1-[1-(2,2-dimethylpropyl)-6-[2-(trifluoromethyl)phenyl]pyrrolo[2,3-b]pyridin-3-yl]-2,2,2-trifluoro-ethyl]cyclopropanesulfonamide], for which the EC50 was under 500 nM.
